Test results taken from patent US4057530A, “2-Phenyl-indole derivatives and process for preparing the same” (priority 1974, dated 1977).

Legend:
[1] = Acute toxicity by oral route in mice (LD50); type: in vivo; conditions: mouse, in vivo, gummy suspension
Protocol: (§1) The study of the acute toxicity of the stabilizers listed below was carried out by determining the dose of substance which provoked the death of 50% of the treated animals (LD50). A gummy suspension of the substance under study was administered by oral route to groups of at least ten mice and the following results were observed: […]

mice = assay: Acute toxicity by oral route in mice (LD50); type: in vivo; conditions: LD50 study
Protocol: as §1

[2] = Static thermostability of stabilized resin, simplified method (GARDNER sub-scale), Compound A; conditions: 210° C; for Colouration given to the polymer: 0 and 3 min
Protocol: (§2) The stabilizing power of the substances of the invention was studied from two points of view:
(§3) These studies were performed with six different formulae of vinyl resins (hereinafter referred to as Compounds).
(§4) The different compounds were mixed and calendered in a mixer of which the cylinders were heated to 160° C. The rigid sheets so obtained were then heated in an oven to a temperature between 180° C and 215° C, until incipient carbonization.
(§5) A stove with rotating drums, ventilated and equipped with a thermostat was used for this operation. In the trials described hereunder, the behaviour of a sheet containing the stabilizer to be tested was compared to that of a sheet of the same formula but containing 2-phenyl-indole as stabilizer.
2. It is also possible to use a simplified method which is more rapid and with which valid results are also obtained: a reference scale is drawn up with sheets of thermally treated polyvinyl chloride, of which the colourations have been definitely determined in GARDNER degrees as above. A GARDNER sub-scale is thus obtained in polyvinyl chloride sheets which can be directly compared to the sheets to be tested without using the comparator.
Finally, trials were carried out with Stabilizers 15, 16 and 17 and with 2-phenyl-indole. Compound A was used and the temperature was 210° C.

[3] = Static thermostability of stabilized resin, GARDNER Scale Comparator, Compound A; conditions: 185° C
Protocol: as §2, §3, §4, §5
1. The colouration of the sheets, of which samples were removed from the stove at fixed intervals was compared to a standard scale of colouration, known as the GARDNER Scale, and expressed in terms of the reference figures of the GARDNER Scale.
Comparisons were made with a GARDNER Scale Comparator which contains 18 filters of coloured glass and which offers the possibility of observing by transparency and in a limited field of view both the sheet and the reference filters.

SMILES | LD50 [1] [mg/kg] | Toxic symptoms (mice) | Static thermostability compared with 2-phenyl-indole [2] | Colouration of sheet (GARDNER sub-scale) ([2]; 0 min) | Colouration of sheet (GARDNER sub-scale) ([2]; 3 min) | Colouration of sheet (GARDNER sub-scale) ([2]; 6 min) | Colouration of sheet (GARDNER sub-scale) ([2]; 9 min) [GARDNER degrees] | Colouration of sheet (GARDNER sub-scale) ([2]; 12 min) [GARDNER degrees] | Colouration of sheet (GARDNER sub-scale) ([2]; 15 min) | Colouration of sheet (GARDNER sub-scale) ([2]; 18 min) | further results
Sc1ccc(-c2cc3ccccc3[nH]2)cc1 [Stabilizer 1, 2-(4'-mercapto-phenyl)-indole] | > 2000 | none | superiority of Stabilizer 1 over 2-phenyl-indole | 1 GARDNER degrees | 2 GARDNER degrees | 2.5 GARDNER degrees | 7 | 11 | 12 GARDNER degrees | – | –
CSc1ccc(-c2cc3ccccc3[nH]2)cc1 [Stabilizer 3, 2-(4'-methylthio-phenyl)-indole] | > 3000 | none | markedly superior to 2-phenyl-indole | 1 GARDNER degrees | 1 GARDNER degrees | 2 GARDNER degrees | 3 | 8 | 10 GARDNER degrees | – | –
CC(=O)Oc1ccc(-c2cc3ccccc3[nH]2)cc1 [Stabilizer 4, 2-(4'-acetoxy-phenyl)-indole] | > 3000 | none | – | – | – | – | – | – | – | – | –
CCOC(=O)C(C)(C)Oc1ccc(-c2cc3ccccc3[nH]2)cc1 [Stabilizer 5, 2-(4'-carbethoxyisopropyloxy-phenyl)-indole] | > 3000 | none | markedly superior to 2-phenyl-indole | – | – | – | – | – | – | – | –
O=C(Oc1ccc(-c2cc3ccccc3[nH]2)cc1)c1ccccc1 [Stabilizer 6, 2-(4'-benzoyloxy-phenyl)-indole] | > 4000 | none | – | – | – | – | – | – | – | – | –
Nc1cccc(-c2cc3ccccc3[nH]2)c1 [Stabilizer 11, 2-(3'-amino-phenyl)-indole] | – | – | developed less rapidly than that due to 2-phenyl-indole | 3 GARDNER degrees | 3 GARDNER degrees | 4 GARDNER degrees | 5 | 10 | 12 GARDNER degrees | burnt | Colouration given to the polymer [2]: relatively intense yellow colouration
O=C(O)COc1ccc(-c2cc3ccccc3[nH]2)cc1 [Stabilizer 12, 2-(4'-carboxymethoxy-phenyl)-indole] | – | – | developed less rapidly than those due to 2-phenyl-indole | 2 GARDNER degrees | 2 GARDNER degrees | 3 GARDNER degrees | – | – | brown | burnt | –
CCOC(=O)COc1ccc(-c2cc3ccccc3[nH]2)cc1 [Stabilizer 13, 2-(4'-carbethoxymethoxy-phenyl)-indole] | – | – | markedly superior to 2-phenyl-indole | 2 GARDNER degrees | 2 GARDNER degrees | 3 GARDNER degrees | 3 | 9 | 11 GARDNER degrees | burnt | –
CC(=O)Nc1ccc(-c2cc3ccccc3[nH]2)cc1 [Stabilizer 14, 2-(4'-N-acetylamino-phenyl)-indole] | – | – | slightly superior to 2-phenyl-indole | 2 GARDNER degrees | 2 GARDNER degrees | 3 GARDNER degrees | 4 | 8 | 12 GARDNER degrees | burnt | –
CC(C)Sc1ccc(-c2cc3ccccc3[nH]2)cc1 [Stabilizer 17, 2-(4'-isopropylthio-phenyl)-indole] | – | – | very rapidly found to be superior to 2-phenyl-indole | 1 GARDNER degrees | 1 GARDNER degrees | 2 GARDNER degrees | 4 | 10 | 13 GARDNER degrees | burnt | Colouration of sheet (GARDNER Scale) ([3]; 0 min): 1 GARDNER degrees; Colouration of sheet (GARDNER Scale) ([3]; 6 min): 1 GARDNER degrees; Colouration of sheet (GARDNER Scale) ([3]; 12 min): 2 GARDNER degrees; Colouration of sheet (GARDNER Scale) ([3]; 18 min): 4 GARDNER degrees; Colouration of sheet (GARDNER Scale) ([3]; 24 min): 9 GARDNER degrees; Colouration of sheet (GARDNER Scale) ([3]; 30 min): 11 GARDNER degrees; Colouration of sheet (GARDNER Scale) ([3]; 36 min): 12 GARDNER degrees; Colouration of sheet (GARDNER Scale) ([3]; 42 min): 13 GARDNER degrees; Colouration of sheet (GARDNER Scale) ([3]; 48 min): 14 GARDNER degrees; Colouration of sheet (GARDNER Scale) ([3]; 54 min): burnt
Oc1ccc(-c2cc3ccccc3[nH]2)cc1 [Stabilizer 20, 2-(4'-hydroxy-phenyl)-indole] | > 3000 | none | markedly superior to 2-phenyl-indole | 1 GARDNER degrees | 1 GARDNER degrees | 2 GARDNER degrees | 4 | 9 | 11 GARDNER degrees | – | –
Nc1ccc(-c2cc3ccccc3[nH]2)cc1 [Stabilizer 22, 2-(4'-amino-phenyl)-indole] | – | – | developed less rapidly than that due to 2-phenyl-indole | 2 GARDNER degrees | 3 GARDNER degrees | 3 GARDNER degrees | 4 | 6 | 12 GARDNER degrees | burnt | Colouration given to the polymer [2]: relatively strong yellow colouration
Nc1ccccc1-c1cc2ccccc2[nH]1 [Stabilizer 23, 2-(2'-amino-phenyl)-indole] | > 2000 | none | superior to 2-phenyl-indole | pink | pink | pink | 4 | 6 | 12 GARDNER degrees | – | –
O=C(Nc1ccccc1-c1cc2ccccc2[nH]1)c1ccccc1 [Stabilizer 25, 2-(2'-N-benzoylamino-phenyl)-indole] | – | – | slightly superior to 2-phenyl-indole | 2 GARDNER degrees | 2 GARDNER degrees | 4 GARDNER degrees | 6 | 9 | 12 GARDNER degrees | burnt | –
c1ccc(-c2ccc(-c3cc4ccccc4[nH]3)cc2)cc1 [Stabilizer 26, 2(4'-phenyl-phenyl)-indole] | – | – | markedly superior to 2-phenyl-indole | 2 GARDNER degrees | 2 GARDNER degrees | 3 GARDNER degrees | 4 | 5 | 12 GARDNER degrees | 14 GARDNER degrees | –
